For data set [1] the following is noted: reported; cited from earlier work.
Data set [2] can be described thus: Plasma pharmacokinetics of nabilone and gabapentin after oral PP-01 once daily for four doses (LC-MS/MS), Example 1 clinical study. The note with it: for AUC(0-t) / AUC(0-inf) / Cmax / Tmax / half-life: human, plasma, oral; for AUC(0-inf): AUC0-∞; for Pharmacokinetics compared with historical controls: nabilone and gabapentin given together as PP-01. An excerpt:
A total of 14 eligible healthy volunteers with moderate to severe CUD and no contraindications to nabilone or gabapentin were randomized to receive PP-01 (nabilone and gabapentin; Test) or Placebo, in a 1:1 ratio, from a randomization table at the start of Period 1 (Day −1). If participants received PP-01 in Period 1, they received Placebo in Period 2; similarly, if participants received Placebo in Period 1, they received PP-01 in Period 2. Participants received oral doses of PP-01 or Placebo approximately 2 hours before a standardized meal on the morning on the second day of each inpatient admission (Day 1, Periods 1 and 2) and continued to receive once-daily dosing in the morning for a total of four doses per period.
On Day 1, the 0-hour PK blood draw was obtained within 30 minutes prior to the first dose of study drug which was administered by the Investigator (or a staff member as delegated by the Investigator) at approximately 120 minutes prior to the morning standardized breakfast. Venous blood samples of approximately 10 mL each were obtained at the following times following the Day 1 dose to assess nabilone and gabapentin concentrations: 30 and 60 minutes, and 2, 3, and 4 hours (within ±5 minutes of each time point), and 6, 8, 12, and 24 hours (within ±10 minutes of each time point) after study drug administration. The CWS was completed by participants prior to dosing (Baseline) and at 4- and 10-hours post-dose and the sleep questionnaire was completed in the morning prior to dosing. Blood samples to assess serum cortisol were obtained in the evening. Routine safety assessments were performed as scheduled.
On Day 4, the 0-hour PK blood draw was obtained within 30 minutes prior to the dosing of study drug, which was administered by the Investigator (or a staff member as delegated by the Investigator) at approximately 120 minutes prior to the morning standardized breakfast. Venous blood samples of approximately 10 mL each were obtained at the following times following the Day 4 dose to assess nabilone and gabapentin concentrations: 30 and 60 minutes, and 2, 3, and 4 hours (within ±5 minutes of each time point), and 6, 8, 12, and 24 hours (within ±10 minutes of each time point) after study drug administration. The CWS was completed by participants prior to dosing and at 4- and 10-hours post-dose and the sleep questionnaire was completed in the morning prior to dosing; the PGI-S and CGI were completed approximately 4 hours after dosing. Blood samples to assess serum cortisol were obtained in the evening. Routine safety assessments were performed as scheduled.
The following PK assessments were assessed in Periods 1 and 2 on Day 1, Day 2 (trough), Day 4, Day 5 (trough), and Day 8 for nabilone and gabapentin. Baseline concentrations were defined as the 0-minute time point (within 30 minutes of dosing) on Day 1 (Periods 1 and 2). • Area under the plasma concentration-time curve from 0 to the last measurable concentration (AUC0-t) • Area under the plasma concentration-time curve extrapolated to infinity (AUC0-∞) • Peak (maximum) plasma concentration of the drug (Cmax) • Time to peak (maximum) plasma concentration (tmax) • Elimination half-life (t1/2)
Venous blood samples of 10 ml each were collected with K2EDTA anticoagulant for Baseline levels of Δ-9-THC, 11-OHTHC and THC-COOH on Day −1 (Periods 1 and 2). For Periods 1 and 2, levels of nabilone and gabapentin were assessed following the time points listed in Table 2 following the first and fourth dose. Study participants returned on Day 8 (Periods 1 and 2) to have PK samples drawn to help determine the terminal half-life of nabilone. The Baseline (0-hour) time point was collected within 30 minutes prior to dosing.
Baseline concentrations of Δ-9-THC, 11-OHTHC and THC-COOH were determined using a validated liquid chromatographic-tandem mass spectroscopy (LC-MS/MS) assay with a lower limit of quantification (LLOQ) of 0.200 ng/mL.

The conditions of data set [3]: pH values ranging from 1.2 to 7.0; cited from earlier work.
In a further data set the test system is GABA receptors. The settings on record: concentrations at or below 1 millimolar; cited from earlier work.
The mark [4] stands for this setting: 6 mg, nabilone 6 mg, Days 1-2, both sequences, arithmetic mean.
Where [5] appears, read: 6 mg, nabilone 6 mg, Days 4-5, both sequences, arithmetic mean.
The mark [6] stands for this setting: 600 mg, gabapentin 600 mg, Sequence AB, Days 1-2, arithmetic mean.
Where [7] appears, read: 600 mg, gabapentin 600 mg, Sequence AB, Days 4-5, arithmetic mean.
[8] abbreviates: 600 mg, gabapentin 600 mg, Sequence BA, Days 1-2, arithmetic mean.
Where [9] appears, read: 600 mg, gabapentin 600 mg, Sequence BA, Days 4-5, arithmetic mean.

“Also recorded” adds a separate entry of the source.

With `CCCCCc1cc(O)c2c(c1)OC(C)(C)[C@@H]1CCC(CO)=C[C@@H]21` [11-OH-delta-9-THC, 11-hydroxy-delta-9-tetrahydrocannabinol], the “agonist potency relative to delta-9-THC” value in data set [1] is recorded as “more potent agonist than delta-9-THC”.
As a reminder, the AUC(0-t) is the area under the concentration-time curve up to a stated or last time point. A low value points to less exposure. What is called AUC(0-inf) is the area under the concentration-time curve extrapolated to infinity. High values mean high exposure, low ones low exposure. Broadly, the Cmax is the peak of the concentration-time curve. Broadly, the Tmax is the time at which the peak concentration occurs. For orientation: half-life means the time needed for the level to fall by half in the phase considered. Low values mean rapid decline, high ones slow decline. Turning to `CCCCCCC(C)(C)c1cc(O)c2c(c1)OC(C)(C)C1CCC(=O)CC21` (racemic) [Nabilone, (±)-trans-3-(1,1-dimethylheptyl)-6,6a,7,8,10,10a-hexahydro-1-hydroxy-6-6-dimethyl-9H-dibenzo[b,d]pyran-9-one], the AUC(0-t) in data set [2] (6 mg, AUC0-24, nabilone 6 mg, Days 1-2, both sequences, arithmetic mean) came out at 34.1 ng·h/mL; in data set [2] (6 mg, AUC0-24, nabilone 6 mg, Days 4-5, both sequences, arithmetic mean), 33.9 ng·h/mL. Also, the AUC(0-inf) in data set [2] (setting [4]) is 35.8 ng·h/mL; in data set [2] (setting [5]), 37.4 ng·h/mL. Moreover, the Cmax in data set [2] (setting [4]) was 8.51 ng/mL; in data set [2] (setting [5]) it was 8.59 ng/mL. Also, the time of peak concentration (Tmax) was 2.5 ± 1.5 h in data set [2] (6 mg, Tmax, nabilone 6 mg, Days 1-2, both sequences, PK population, arithmetic mean ± SD); 2.3 ± 0.9 h in data set [2] (6 mg, Tmax, nabilone 6 mg, Days 4-5, both sequences, arithmetic mean ± SD); approximately 2.5 h in data set [2] (mean time to maximal concentration (Tmax), nabilone). The half-life was 6.4 ± 1.7 h in data set [2] (6 mg, t1/2, nabilone 6 mg, Days 1-2, both sequences, arithmetic mean ± SD) and 9.9 ± 2.5 h in data set [2] (6 mg, t1/2, nabilone 6 mg, Days 4-5, both sequences, arithmetic mean ± SD). In data set [2], the “Pharmacokinetics compared with historical controls” value is “consistent with historical controls”. Besides, the “accumulation over the period studied” value in data set [2] (nabilone, Days 1 to 2 vs Days 4 to 5) is “no accumulation occurred; also recorded: minimal accumulation”. Further, the “solubility in aqueous media” value in data set [3] was “less than 0.5 mg/L”.
In data set [2] (gabapentin 600 mg, Sequence BA, Days 1-2, arithmetic mean), `NCC1(CC(=O)O)CCCCC1` [Gabapentin, 1-(aminomethyl)cyclohexaneacetic acid] came in with a t1/2 of 5.3 h. In addition, the “exposure metrics (Cmax, AUC0-24, AUC0-∞) over time” value in data set [2] (gabapentin, Days 4 to 5 vs Days 1 to 2) is on record as “exposure slightly increased at Days 4 to 5 compared to Days 1 to 2”. The AUC(0-t) is 65700 ng·h/mL in data set [2] (600 mg, AUC0-24, gabapentin 600 mg, Sequence AB, Days 1-2, arithmetic mean); 70500 ng·h/mL in data set [2] (600 mg, AUC0-24, gabapentin 600 mg, Sequence AB, Days 4-5, arithmetic mean); 53600 ng·h/mL in data set [2] (600 mg, AUC0-24, gabapentin 600 mg, Sequence BA, Days 1-2, arithmetic mean); 58100 ng·h/mL in data set [2] (600 mg, AUC0-24, gabapentin 600 mg, Sequence BA, Days 4-5, arithmetic mean); 53600 to 70500 ng·h/mL in data set [2] (AUC0-24, gabapentin, range across days and sequences). Besides, the AUC(0-inf) in data set [2] (setting [6]) was 70000 ng·h/mL; in data set [2] (setting [7]), 74900 ng·h/mL; in data set [2] (setting [8]) it was 57200 ng·h/mL; in data set [2] (setting [9]), 63100 ng·h/mL. The Cmax in data set [2] (setting [6]) stood at 6080 ng/mL; in data set [2] (setting [7]), 7010 ng/mL; in data set [2] (setting [8]), 5170 ng/mL; in data set [2] (setting [9]), 5510 ng/mL. Also, the Tmax in data set [2] (600 mg, Tmax, gabapentin 600 mg, Sequence AB, Days 1-2, arithmetic mean ± SD) was 3.7 ± 1.1 h; in data set [2] (600 mg, Tmax, gabapentin 600 mg, Sequence AB, Days 4-5, arithmetic mean ± SD) it was 3.3 ± 0.8 h; in data set [2] (600 mg, Tmax, gabapentin 600 mg, Sequence BA, Days 1-2, arithmetic mean ± SD) it was 3.7 ± 0.5 h; in data set [2] (600 mg, Tmax, gabapentin 600 mg, Sequence BA, Days 4-5, arithmetic mean ± SD), 1 ± 1.1 h; in data set [2] (mean Tmax, gabapentin, across days and sequences), 3.3 to 4 h. Also, the half-life in data set [2] (600 mg, t1/2, gabapentin 600 mg, Sequence AB, Days 1-2, arithmetic mean) is 5.4 h; in data set [2] (600 mg, t1/2, gabapentin 600 mg, Sequence AB, Days 4-5, arithmetic mean), 5.5 h; in data set [2] (600 mg, t1/2, gabapentin 600 mg, Sequence BA, Days 4-5, arithmetic mean), 6.3 h; in data set [2] (mean t1/2, gabapentin, range across treatment (days, sequence)) it was 5.3 to 6.3 h. The “Pharmacokinetics compared with historical controls” value in data set [2] was “consistent with historical controls”. Moreover, in the data set on GABA receptors, the “binding to GABA receptors” value was “has not been shown to bind to GABA receptors”.
